Assay results published in patent US12729458B2, “Discovery and evolution of biologically active metabolites” (The Regents of the University of Colorado, a Body Corporate, priority 2020, dated 2026).
Entries after “also recorded” stand apart in the source; their conditions may differ.

Assays:
[1] = tested on: insulin receptor (IR) phosphorylation (PTP1B-mediated) in HEK293T/17 cells; assay: ELISA of insulin receptor (IR) phosphorylation in HEK293T/17 cells; assay type: cell-based; details: for IR phosphorylation (ELISA signal): 3% DMSO, 10 minutes, starved HEK293T/17 cells, vs 3% DMSO control; for Δμ, null hypothesis compound-(−) = 0: difference of means vs negative control (−)
Text: Analysis of PTP1B inhibition in HEK293TCells. We prepared HEK293T/17 cells for an enzyme-linked immunosorbent assay (ELISA) by growing them in 75 cm^2 culture flasks (Corning) with DMEM media supplemented with 10% FBS, 100 units/ml penicillin, and 100 units/ml streptomycin. We replaced the media every day for 3-5 days until the cells reached 80-100% confluency.
We measured the influence of inhibitors on insulin receptor (IR) phosphorylation by using an IR-specific ELISA (FIG. 35). Briefly, we starved cells for 48 hours in FBS-free media and incubated the with inhibitors (all at 3% DMSO) for 10 minutes. After incubation, we lysed cells with lysis buffer (9803, Cell Signaling Technology) supplemented with 1× halt phosphatase inhibitor cocktail and 1× halt protease inhibitor cocktail (Thermo Fisher Scientific) for 10 min, pelleted the cell debris, and used the lysis buffer to dilute each sample to 60 mg/ml total protein. We measured IR phosphorylation in subsequent dilutions of the 60 mg/ml samples with the PathScan® Phospho-Insulin Receptor β (panTyr) Sandwich ELISA Kit (Cell Signaling Technology; #7082).
Statistical analysis and reproducibility. We determined statistical significance (FIG. 23H) with a two-tailed Student's t-test (details in TABLE 14), and we used an F-test to compare one- and two-parameter models of inhibition (TABLE 12).

PTP1B = target: T1, PTP1B (Homo sapiens, UniProt P18031); assay: X-ray crystallography of PTP1B soaked with ligand; assay type: binding, H. sapiens
T1 construct: In this study, we used a well-studied truncation variant (i.e., PTP1B1-321); His-tag; made in house; host or cells: E. coli BL21 (DE3), pET21b
T1 sequence (P18031 1-321): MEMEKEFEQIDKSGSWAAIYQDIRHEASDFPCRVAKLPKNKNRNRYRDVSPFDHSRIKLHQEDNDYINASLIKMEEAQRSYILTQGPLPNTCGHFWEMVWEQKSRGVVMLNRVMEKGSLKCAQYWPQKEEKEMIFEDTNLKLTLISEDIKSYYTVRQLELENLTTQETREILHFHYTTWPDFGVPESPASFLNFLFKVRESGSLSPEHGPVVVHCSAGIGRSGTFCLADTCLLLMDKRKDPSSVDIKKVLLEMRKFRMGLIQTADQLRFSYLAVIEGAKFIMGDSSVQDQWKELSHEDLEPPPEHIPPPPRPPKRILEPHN
Experimental: X-ray crystallography. We prepared crystals of PTP1B by using hanging drop vapor diffusion. In brief, we added 2 μL of PTP1B (~600 μM PTP1B, 50 mM HEPES, pH 7.3) to 6 μL of crystallization solution (100 mM HEPES, 200 mM magnesium acetate, and 14% polyethylene glycol 8000, pH 7.5) and incubated the resulting droplets over crystallization solution for one week at 4° C. (EasyXtal CrystalSupport, Qiagen). We soaked crystals with ligand by transferring them to droplets formed with 6 μL of crystallization solution and 1 μL of ligand solution (10 mM in DMSO), which we incubated for 2-5 days at 4° C. We prepared all […] for freezing by soaking them in cryoprotectant formed from a 70/30 (v/v) mixture of buffer (100 mM HEPES, 200 mM magnesium acetate, and 25% polyethylene glycol 8000, pH 7.5) and glycerol.
We collected X-ray diffraction data through the Collaborative Crystallography Program at Lawrence Berkeley National Lab (ALS ENABLE, beamline 8.2.1, 100 K, 1.00003 Å). We performed integration, scaling, and merging of X-ray diffraction data using the xia2 software package^79, and we carried out molecular replacement and structure refinement with the PHENIX graphical interface,^80 supplemented with manual model adjustment in COOT^81 and one round of PDB-REDO^82 (the latter, only for the PTP1B-AD complex).

[2] = FIG. 3h, t-test, unequal variance

Row | Structure (SMILES) | IR phosphorylation (ELISA signal) ([1]; 930 μM) | IR phosphorylation (ELISA signal) ([1]; 930 μM, listed as AD) | IR phosphorylation (ELISA signal) ([1]; 930 μM, listed as Amorphadiene) | Δμ, null hypothesis AD-DHA = 0 ([1]; difference of means AD vs DHA, FIG. 3h, t-test, unequal variance) | Δμ, null hypothesis compound-(−) = 0 [1, 2] | binding site on PTP1B (crystal structure) (PTP1B; crystal soaked with ligand, pdb entry 6W30) | IR phosphorylation (ELISA signal) ([1]; 405 μM) | IR phosphorylation (ELISA signal) ([1]; 405 μM, listed as AB) | Δμ, null hypothesis AB-ABOL = 0 ([1]; difference of means AB vs ABOL, FIG. 3h, t-test, unequal variance) | solubility (crystal soaking experiments) (PTP1B)
1 | C=C(C)[C@@H]1CC[C@@H](C)[C@@H]2CCC(C)=C[C@@H]21 [amorphadiene] | inhibit PTP1B inside of a HEK293T/17 cell; also recorded: can increase IR phosphorylation over a negative control | increased IR phosphorylation over a negative control | stimulate IR phosphorylation | 0.124 | 0.212 | binds to the same allosteric site targeted by benzbromarone derivatives | – | – | – | –
2 | CC(C)=CCC=C(C)C1CC=C(C)CC1 (stereo not drawn) [α-bisabolene] | – | – | – | – | 0.310 | – | stimulate IR phosphorylation; also recorded: can increase IR phosphorylation over a negative control | increased IR phosphorylation over a negative control | 0.309 | poor solubility
